From patent US9457093B2, “Solid dispersions of a ERB2 (HER2) inhibitor” (Array BioPharma Inc., priority 2011, dated 2016)

Experiment: Dissolution testing at pH 6.5 in phosphate buffer at 37° C.
Format: physicochemical
Conditions: pH 6.5 phosphate buffer, about 240 minutes
Description: Dissolution testing was performed at a pH of 6.5 in phosphate buffer. The solid dispersion was suspended in H2O and added directly to the buffer solution at 37° C. The dissolution profile was collected over a period of about 240 minutes. The results are in FIG. 2.
Dissolution testing was performed at a pH of 6.5 in phosphate buffer. The solid dispersion was suspended in H2O and added directly to the buffer solution at 37° C. The dissolution profile was collected over a period of about 240 minutes. The results are in FIG. 3.
Dissolution testing was performed at a pH of 6.5 in phosphate buffer. The solid dispersion was suspended in H2O and added directly to the buffer solution at 37° C. The dissolution profile was collected over a period of about 240 minutes. The results are in FIG. 4.
Dissolution testing was performed at a pH of 6.5 in phosphate buffer. The solid dispersion was suspended in H2O and added directly to the buffer solution at 37° C. The dissolution profile was collected over a period of about 240 minutes. The results are in FIG. 5.
Dissolution testing was performed at a pH of 6.5 in phosphate buffer. The solid dispersion was suspended in H2O and added directly to the buffer solution at 37° C. The dissolution profile was collected over a period of about 240 minutes. The results are in FIG. 6.
Dissolution testing was performed at a pH of 6.5 in phosphate buffer. […]

- AUC for the free drug species: 5490 ng·h/mL
- Cmax for the free drug species: 440 ng/mL
SMILES: Cc1cc(Nc2ncnc3ccc(NC4=NC(C)(C)CO4)cc23)ccc1Oc1ccn2ncnc2c1 [Example 12, N4-(4-([1,2,4]triazolo[1,5-α]pyridin-7-yloxy)-3-methylphenyl)-N6-(4,4-dimethyl-4,5-dihydrooxazol-2-yl)quinazoline-4,6-diamine freebase hemi-ethanolate]
